{"source": "patent US6476022B1", "about": "“Oxathiepino[6,5-b]dihydropyridines, and related compositions and methods” (Ortho-McNeil Pharmaceutical, Inc., priority 1999, dated 2002)", "key": {"[1]": {"molecular_target": "T1, calcium channel (3H-nitrendipine binding, heart membranes) (Oryctolagus cuniculus, UniProt P15381)", "T1 construct": "from tissue; host or cells: rabbit heart (crude membrane pellet)", "T1 sequence (P15381 whole entry, other chains not shown)": "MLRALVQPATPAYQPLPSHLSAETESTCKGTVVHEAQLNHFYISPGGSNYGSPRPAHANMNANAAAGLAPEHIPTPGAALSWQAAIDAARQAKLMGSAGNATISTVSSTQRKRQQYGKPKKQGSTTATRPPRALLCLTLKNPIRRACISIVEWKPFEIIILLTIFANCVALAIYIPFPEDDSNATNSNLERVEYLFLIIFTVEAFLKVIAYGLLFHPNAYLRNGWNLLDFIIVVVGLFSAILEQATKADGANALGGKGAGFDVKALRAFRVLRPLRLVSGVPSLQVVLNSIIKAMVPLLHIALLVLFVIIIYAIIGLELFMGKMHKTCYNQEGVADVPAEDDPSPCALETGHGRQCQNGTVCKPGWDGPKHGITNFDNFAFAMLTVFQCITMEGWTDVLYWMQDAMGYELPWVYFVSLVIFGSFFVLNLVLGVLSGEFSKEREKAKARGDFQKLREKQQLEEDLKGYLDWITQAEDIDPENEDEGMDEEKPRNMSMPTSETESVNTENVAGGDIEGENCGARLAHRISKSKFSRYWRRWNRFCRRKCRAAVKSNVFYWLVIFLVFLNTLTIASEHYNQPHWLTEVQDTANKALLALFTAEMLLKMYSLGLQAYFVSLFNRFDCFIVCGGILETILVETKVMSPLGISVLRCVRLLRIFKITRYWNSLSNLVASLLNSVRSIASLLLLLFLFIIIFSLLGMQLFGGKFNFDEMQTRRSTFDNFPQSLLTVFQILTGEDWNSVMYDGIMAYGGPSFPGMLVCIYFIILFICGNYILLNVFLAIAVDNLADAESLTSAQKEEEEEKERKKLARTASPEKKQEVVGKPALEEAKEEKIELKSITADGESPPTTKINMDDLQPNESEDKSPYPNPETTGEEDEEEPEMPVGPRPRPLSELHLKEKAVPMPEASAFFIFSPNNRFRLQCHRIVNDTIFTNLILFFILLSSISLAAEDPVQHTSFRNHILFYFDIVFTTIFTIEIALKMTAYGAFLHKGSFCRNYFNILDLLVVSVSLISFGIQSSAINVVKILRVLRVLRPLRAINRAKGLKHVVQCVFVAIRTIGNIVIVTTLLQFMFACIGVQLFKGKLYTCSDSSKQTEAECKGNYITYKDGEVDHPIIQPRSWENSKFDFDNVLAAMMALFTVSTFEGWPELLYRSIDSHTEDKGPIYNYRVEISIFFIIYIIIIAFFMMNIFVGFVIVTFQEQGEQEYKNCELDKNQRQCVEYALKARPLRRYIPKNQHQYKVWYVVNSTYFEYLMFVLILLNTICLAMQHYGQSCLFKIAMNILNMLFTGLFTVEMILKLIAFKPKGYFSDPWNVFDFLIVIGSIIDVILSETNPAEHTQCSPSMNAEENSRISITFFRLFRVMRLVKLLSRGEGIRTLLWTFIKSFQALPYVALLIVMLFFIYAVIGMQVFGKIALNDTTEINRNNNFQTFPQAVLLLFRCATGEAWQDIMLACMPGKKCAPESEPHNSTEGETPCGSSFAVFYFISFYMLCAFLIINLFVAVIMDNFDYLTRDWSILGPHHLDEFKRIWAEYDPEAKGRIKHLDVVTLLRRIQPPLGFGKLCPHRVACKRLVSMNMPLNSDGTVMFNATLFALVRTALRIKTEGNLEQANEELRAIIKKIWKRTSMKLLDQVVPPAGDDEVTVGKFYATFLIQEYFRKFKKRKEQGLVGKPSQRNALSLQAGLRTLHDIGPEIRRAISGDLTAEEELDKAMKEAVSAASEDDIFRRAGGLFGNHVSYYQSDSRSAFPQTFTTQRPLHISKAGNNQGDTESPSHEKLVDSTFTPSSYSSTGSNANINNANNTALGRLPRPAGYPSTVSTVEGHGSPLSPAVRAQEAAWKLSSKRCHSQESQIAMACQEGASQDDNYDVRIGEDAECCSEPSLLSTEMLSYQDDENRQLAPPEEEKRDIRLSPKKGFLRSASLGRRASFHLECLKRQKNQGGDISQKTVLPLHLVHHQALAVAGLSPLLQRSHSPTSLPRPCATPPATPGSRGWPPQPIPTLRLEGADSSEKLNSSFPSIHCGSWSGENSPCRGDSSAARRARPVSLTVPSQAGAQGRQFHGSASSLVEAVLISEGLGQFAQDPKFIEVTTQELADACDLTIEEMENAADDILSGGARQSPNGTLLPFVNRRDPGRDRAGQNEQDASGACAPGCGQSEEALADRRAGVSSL", "T1 sequence (P13806 27-960 partner limits assumed, other chains not shown)": "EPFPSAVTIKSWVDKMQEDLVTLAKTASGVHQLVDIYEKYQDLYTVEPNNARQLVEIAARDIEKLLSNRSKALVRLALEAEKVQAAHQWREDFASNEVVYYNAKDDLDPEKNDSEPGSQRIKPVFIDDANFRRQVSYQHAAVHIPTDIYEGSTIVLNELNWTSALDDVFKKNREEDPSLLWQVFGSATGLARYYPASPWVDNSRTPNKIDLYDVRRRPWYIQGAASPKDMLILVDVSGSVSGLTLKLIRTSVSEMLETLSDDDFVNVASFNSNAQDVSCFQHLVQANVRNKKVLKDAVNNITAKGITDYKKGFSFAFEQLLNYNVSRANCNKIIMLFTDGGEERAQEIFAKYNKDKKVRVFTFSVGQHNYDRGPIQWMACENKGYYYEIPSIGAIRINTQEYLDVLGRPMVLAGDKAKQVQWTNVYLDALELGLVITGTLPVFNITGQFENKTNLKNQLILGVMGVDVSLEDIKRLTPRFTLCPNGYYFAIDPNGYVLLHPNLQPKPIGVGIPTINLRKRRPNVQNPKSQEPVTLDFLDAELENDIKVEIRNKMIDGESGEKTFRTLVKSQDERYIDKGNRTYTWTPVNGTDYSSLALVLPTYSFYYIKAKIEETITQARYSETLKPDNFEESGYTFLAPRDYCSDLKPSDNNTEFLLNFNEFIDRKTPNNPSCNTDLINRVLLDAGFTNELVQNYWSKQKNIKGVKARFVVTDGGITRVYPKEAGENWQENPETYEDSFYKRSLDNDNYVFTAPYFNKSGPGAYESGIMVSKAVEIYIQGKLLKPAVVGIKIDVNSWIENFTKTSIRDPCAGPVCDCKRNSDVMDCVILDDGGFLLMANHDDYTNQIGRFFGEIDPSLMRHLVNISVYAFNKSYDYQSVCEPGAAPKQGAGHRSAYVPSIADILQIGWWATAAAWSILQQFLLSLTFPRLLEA", "T1 sequence (P13806 961-1106 partner limits assumed, other chains not shown)": "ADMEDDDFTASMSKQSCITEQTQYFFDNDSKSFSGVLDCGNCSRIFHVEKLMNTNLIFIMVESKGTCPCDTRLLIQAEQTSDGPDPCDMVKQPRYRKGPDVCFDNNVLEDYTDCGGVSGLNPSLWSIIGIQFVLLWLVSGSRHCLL", "assay": "Assay for inhibition of nitrendipine binding (3H-nitrendipine, rabbit heart membranes)", "procedure": "Female, New Zealand white rabbits (1-2 kg) are sacrificed by cervical dislocation, and the heart is immediately removed, cleaned and chopped into small pieces. The tissue is homogenized in 5×volume of 0.05M Hepes buffer, pH 7.4. The homogenate is centrifuged at 4000 g for 10 minutes, and the supernatant is re-centrifuged at 42,000 g for 90 minutes. The resulting membrane pellet is resuspended (0.7 ml/g weight) in 0.05M Hepes, pH 7.4 and stored at […] until used. Each tube of the binding assay contains ^3H-nitrendipine (0.05-0.50 nM), buffer, membranes (0.10 ml ), and test compound in a total volume of 1.0 ml . After 90 minutes at 4° C., the bound nitrendipine is separated from the unbound by filtration on Whatman GF/C filters. After rinsing, the filters are dried and counted in a liquid scintillation counter.\nNon-specifically bound ^3H-nitrendipine (i.e., the amount bound in the presence of excess unlabelled nitrendipine) is subtracted from the total bound to obtain specifically-bound radiolabeled nitrendipine. The amount of specifically-bound nitrendipine in the presence of a test compound is compared to the amount bound in the absence of the compound. A percent displacement (or inhibition) can then be obtained."}, "[2]": {"tested_on": "trachea (trachealis muscle tissue)", "assay": "Test for inhibition of calcium-dependent smooth muscle contraction (KCl-challenged tracheal rings)", "assay_type": "cell-based", "conditions": "Canis lupus familiaris, 10 min; dog tracheal rings, 50 mM KCl challenge, test compound added for 10 minutes", "procedure": "The trachea and the aorta from dogs sacrificed by excess KCl injection are stored overnight at 4° C. in oxygenated Krebs-Henseleit buffer. Tracheal rings, one cartilage segment wide (5-10 mm), are cut starting from the bronchial end. Rings of aorta tissue of the same width are also prepared. After cutting the cartilage, the trachealis muscle tissue and the aorta tissue are suspended in oxygenated Krebs-Henseleit buffer at 37° C. in a 25 ml tissue bath. After a 60-minute equilibration period, the tissues are challenged with 10 μM carbachol. After 5 minutes, the tissues are rinsed and allowed to rest 50 minutes. The tissues are then challenged with 50 mM KCl and, after 30 minutes, the contractions are quantitated. The tissues are then rinsed and re-equilibrated for 50 minutes. Test compounds are then added for 10 minutes, and the tissue is rechallenged with 50 mM KCl. After 30 minutes, the contraction is recorded and used to determine the % inhibition of control. The percent inhibition of smooth muscle contraction is calculated as follows from response data before and after drug treatment:\n% inhibition=100−100×peak response after drug treatment/peak response before drug treatment"}, "[3]": {"conditions": "3H-nitrendipine 0.05-0.50 nM, 90 minutes at 4° C., compounds of Formula I (Table 1)"}, "[4]": {"conditions": "3H-nitrendipine, compounds of Formula IIa (Table 2)"}}}
{"smiles": "CC1=C(C(=O)OCCN(C)Cc2ccccc2)C(c2cccc([N+](=O)[O-])c2)C2=C(COCCS2(=O)=O)N1", "note": "(stereo not drawn) [Compound 1, 5H-[1,4]oxathiepino[6,5-b]pyridine-8-carboxylic acid, 2,3,6,9-tetrahydro-7-methyl-9-(3-nitrophenyl), 2-[methyl(phenylmethyl)amino]ethyl ester, 1,1-dioxide]", "values": [{"measurement": "IC50", "setting": "[1]; [3]", "result": 0.039, "unit": "µM"}]}
{"smiles": "COC(=O)C1=C(C)NC2=C(C1c1ccccc1Cl)S(=O)(=O)CCOC2", "note": "(stereo not drawn) [Compound 2, 5H-[1,4]oxathiepino[6,5-b]pyridine-8-carboxylic acid, 9-(2-chlorophenyl)-2,3,6,9-tetrahydro-7-methyl, methyl ester, 1,1-dioxide]", "values": [{"measurement": "IC50", "setting": "[1]; [3]", "result": 0.012, "unit": "µM"}]}
{"smiles": "CC1=C(C(=O)OCCN(C)Cc2ccccc2)C(c2ccccc2Cl)C2=C(COCCS2(=O)=O)N1", "note": "(stereo not drawn) [Compound 3, 5H-[1,4]oxathiepino[6,5-b]pyridine-8-carboxylic acid, 9-(2-chlorophenyl)-2,3,6,9-tetrahydro-7-methyl, 2-[methyl(phenylmethyl)amino]ethyl ester, 1,1-dioxide]", "values": [{"measurement": "IC50", "setting": "[1]; [3]", "result": 0.129, "unit": "µM"}, {"measurement": "IC50", "setting": "[2]", "result": 0.055, "unit": "µM"}]}
{"smiles": "COC(=O)C1=C(C)NC2=C(C1c1cccc([N+](=O)[O-])c1)S(=O)(=O)CCOC2", "note": "(stereo not drawn) [Compound 4, 5H-[1,4]oxathiepino[6,5-b]pyridine-8-carboxylic acid, 2,3,6,9-tetrahydro-7-methyl-9-(3-nitrophenyl), methyl ester, 1,1-dioxide]", "values": [{"measurement": "IC50", "setting": "[1]; [3]", "result": 0.046, "unit": "µM"}]}
{"smiles": "COC(=O)C1=C(C)NC2=C(C1c1ccccc1[N+](=O)[O-])S(=O)(=O)CCOC2", "note": "(stereo not drawn) [Compound 5, 5H-[1,4]oxathiepino[6,5-b]pyridine-8-carboxylic acid, 2,3,6,9-tetrahydro-7-methyl-9-(2-nitrophenyl), methyl ester, 1,1-dioxide]", "values": [{"measurement": "IC50", "setting": "[1]; [3]", "result": 0.034, "unit": "µM"}]}
{"smiles": "COC(=O)C1=C(C)NC2=C(C1c1cccc(Cl)c1)S(=O)(=O)CCOC2", "note": "(stereo not drawn) [Compound 6, 5H-[1,4]oxathiepino[6,5-b]pyridine-8-carboxylic acid, 9-(3-chlorophenyl)-2,3,6,9-tetrahydro-7-methyl, methyl ester, 1,1-dioxide]", "values": [{"measurement": "IC50", "setting": "[1]; [3]", "result": 0.021, "unit": "µM"}]}
{"smiles": "CC1=C(C(=O)OCCN(C)Cc2ccccc2)C(c2cccc(Cl)c2)C2=C(COCCS2(=O)=O)N1", "note": "(stereo not drawn) [Compound 7, 5H-[1,4]oxathiepino[6,5-b]pyridine-8-carboxylic acid, 9-(3-chlorophenyl)-2,3,6,9-tetrahydro-7-methyl, 2-[methyl(phenylmethyl)amino]ethyl ester, 1,1-dioxide]", "values": [{"measurement": "IC50", "setting": "[1]; [3]", "result": 0.013, "unit": "µM"}]}
{"smiles": "CC1=C(C(=O)OCCN(C)Cc2ccccc2)C(c2ccccc2[N+](=O)[O-])C2=C(COCCS2(=O)=O)N1", "note": "(stereo not drawn) [Compound 8, 5H-[1,4]oxathiepino[6,5-b]pyridine-8-carboxylic acid, 2,3,6,9-tetrahydro-7-methyl-9-(2-nitrophenyl), 2-[methyl(phenylmethyl)amino]ethyl ester, 1,1-dioxide]", "values": [{"measurement": "IC50", "setting": "[1]; [3]", "result": 0.086, "unit": "µM"}]}
{"smiles": "CC1=C(C(=O)OCCOC(=O)c2ccccc2)C(c2c(F)cccc2Cl)C2=C(COCCS2(=O)=O)N1", "note": "(stereo not drawn) [Compound 10, 5H-[1,4]oxathiepino[6,5-b]pyridine-8-carboxylic acid, 9-(2-chloro-6-fluorophenyl)-2,3,6,9-tetrahydro-7-methyl-, 2-(benzoyloxy)ethyl ester, 1,1-dioxide]", "values": [{"measurement": "IC50", "setting": "[1]; [4]", "result": 0.017, "unit": "µM"}]}
{"smiles": "CC1=C(C(=O)OCCOC(=O)C2CCCCC2)C(c2c(F)cccc2Cl)C2=C(COCCS2(=O)=O)N1", "note": "(stereo not drawn) [Compound 11, 5H-[1,4]oxathiepino[6,5-b]pyridine-8-carboxylic acid, 9-(2-chloro-6-fluorophenyl)-2,3,6,9-tetrahydro-7-methyl-, 2-[(cyclohexylcarbonyl)oxy]ethyl ester, 1,1-dioxide]", "values": [{"measurement": "IC50", "setting": "[1]; [4]", "result": 0.096, "unit": "µM"}]}
{"smiles": "CC(=O)OCCOC(=O)C1=C(C)NC2=C(C1c1c(F)cccc1Cl)S(=O)(=O)CCOC2", "note": "(stereo not drawn) [Compound 12, 5H-[1,4]oxathiepino[6,5-b]pyridine-8-carboxylic acid, 9-(2-chloro-6-fluorophenyl)-2,3,6,9-tetrahydro-7-methyl-, 2-(acetyloxy)ethyl ester, 1,1-dioxide]", "values": [{"measurement": "IC50", "setting": "[1]; [4]", "result": 0.582, "unit": "µM"}]}
{"smiles": "CC1=C(C(=O)OCCOC(=O)C2CC2)C(c2c(F)cccc2Cl)C2=C(COCCS2(=O)=O)N1", "note": "(stereo not drawn) [Compound 13, 5H-[1,4]oxathiepino[6,5-b]pyridine-8-carboxylic acid, 9-(2-chloro-6-fluorophenyl)-2,3,6,9-tetrahydro-7-methyl-, 2-[(cyclopropylcarbonyl)oxy]ethyl ester, 1,1-dioxide]", "values": [{"measurement": "IC50", "setting": "[1]; [4]", "result": 0.418, "unit": "µM"}]}
{"smiles": "CC1=C(C(=O)OCCOC(=O)C(C)C)C(c2c(F)cccc2Cl)C2=C(COCCS2(=O)=O)N1", "note": "(stereo not drawn) [Compound 14, 5H-[1,4]oxathiepino[6,5-b]pyridine-8-carboxylic acid, 9-(2-chloro-6-fluorophenyl)-2,3,6,9-tetrahydro-7-methyl-, 2-(2-methyl-1-oxopropoxy)ethyl ester, 1,1-dioxide]", "values": [{"measurement": "IC50", "setting": "[1]; [4]", "result": 0.06, "unit": "µM"}]}
{"smiles": "CC1=C(C(=O)OCCO)C(c2ccccc2Cl)C2=C(COCCS2(=O)=O)N1", "note": "(stereo not drawn) [Compound 15, 5H-[1,4]oxathiepino[6,5-b]pyridine-8-carboxylic acid, 9-(2-chlorophenyl)-2,3,6,9-tetrahydro-7-methyl-, 2-hydroxyethyl ester, 1,1-dioxide]", "values": [{"measurement": "IC50", "setting": "[1]; [4]", "result": 20, "unit": "µM"}]}
{"smiles": "CC1=C(C(=O)OCCCOC(=O)c2ccccc2)C(c2ccccc2Cl)C2=C(COCCS2(=O)=O)N1", "note": "(stereo not drawn) [Compound 16, 5H-[1,4]oxathiepino[6,5-b]pyridine-8-carboxylic acid, 9-(2-chlorophenyl)-2,3,6,9-tetrahydro-7-methyl-, 3-(benzoyloxy)propyl ester, 1,1-dioxide]", "values": [{"measurement": "IC50", "setting": "[1]; [4]", "result": 0.04, "unit": "µM"}]}
{"smiles": "CC1=C(C(=O)OCCOC(=O)C(C)C)C(c2ccccc2Cl)C2=C(COCCS2(=O)=O)N1", "note": "(stereo not drawn) [Compound 17, 5H-[1,4]oxathiepino[6,5-b]pyridine-8-carboxylic acid, 9-(2-chlorophenyl)-2,3,6,9-tetrahydro-7-methyl-, 2-(2-methyl-1-oxopropoxy)ethyl ester, 1,1-dioxide]", "values": [{"measurement": "IC50", "setting": "[1]; [4]", "result": 0.036, "unit": "µM"}]}
{"smiles": "CC1=C(C(=O)OCc2oc(=O)oc2-c2ccccc2)C(c2cccc(Cl)c2Cl)C2=C(COCCS2(=O)=O)N1", "note": "(stereo not drawn) [Compound 18, 5H-[1,4]oxathiepino[6,5-b]pyridine-8-carboxylic acid, 9-(2,3-dichlorophenyl)-2,3,6,9-tetrahydro-7-methyl-, (2-oxo-5-phenyl-1,3-dioxol-4-yl)methyl ester, 1,1-dioxide]", "values": [{"measurement": "IC50", "setting": "[1]; [4]", "result": 0.021, "unit": "µM"}]}
{"smiles": "CC1=C(C(=O)OCc2oc(=O)oc2C)C(c2cccc(Cl)c2Cl)C2=C(COCCS2(=O)=O)N1", "note": "(stereo not drawn) [Compound 19, 5H-[1,4]oxathiepino[6,5-b]pyridine-8-carboxylic acid, 9-(2,3-dichlorophenyl)-2,3,6,9-tetrahydro-7-methyl-, (5-methyl-2-oxo-1,3-dioxol4-yl)methyl ester, 1,1-dioxide]", "values": [{"measurement": "IC50", "setting": "[1]; [4]", "result": 0.018, "unit": "µM"}]}
{"smiles": "CC1=C(C(=O)OCCO)C(c2c(F)cccc2Cl)C2=C(COCCS2(=O)=O)N1", "note": "(stereo not drawn) [Compound 20]", "values": [{"measurement": "IC50", "setting": "[1]; [4]", "result": 4.36, "unit": "µM"}]}
{"smiles": "CC1=C(C(=O)OCCCO)C(c2ccccc2Cl)C2=C(COCCS2(=O)=O)N1", "note": "(stereo not drawn) [Compound 21]", "values": [{"measurement": "IC50", "setting": "[1]; [4]", "result": 0.56, "unit": "µM"}]}
